# Legend:
# Test in all cases: KINOMEscan competition binding
# Details in all cases: compound 0.5 µM
# AKT2 (human) = AKT2 (human) (UniProt P31751)
# [1] = test system: FLT3 (human), P36888 [N841I]
# FLT3 (human) = FLT3 (human) (UniProt P36888)
# MAPK7 (human) = MAPK7 (human) (UniProt Q13164)
# CHEK1 (human) = CHEK1 (human) (UniProt O14757)
# PKN3 (M.tuberculosis) = PKN3 (M.tuberculosis) (UniProt Q6P5Z2)
# ERBB4 (human) = ERBB4 (human) (UniProt Q15303)
# YES1 (human) = YES1 (human) (UniProt P07947)
# PLK1 (human) = PLK1 (human) (UniProt P53350)
# CSNK1G1 (human) = CSNK1G1 (human) (UniProt Q9HCP0)
# MAP2K3 (human) = MAP2K3 (human) (UniProt P46734)
# EPHB6 (human) = EPHB6 (human) (UniProt O15197)
# MYO3A (human) = MYO3A (human) (UniProt Q8NEV4)
# FYN (human) = FYN (human) (UniProt P06241)
# HIPK2 (human) = HIPK2 (human) (UniProt Q9H2X6)
# EIF2AK1 (human) = EIF2AK1 (human) (UniProt Q9BQI3)
# CDC42BPB (human) = CDC42BPB (human) (UniProt Q9Y5S2)
# CASK (human) = CASK (human) (UniProt O14936)
# STK24 (human) = STK24 (human) (UniProt Q9Y6E0)
# WEE2 (human) = WEE2 (human) (UniProt P0C1S8)
# LIMK1 (human) = LIMK1 (human) (UniProt P53667)
# PRKAA1 (human) = PRKAA1 (human) (UniProt Q13131)
# EPHA6 (human) = EPHA6 (human) (UniProt Q9UF33)
# PRKCI (human) = PRKCI (human) (UniProt P41743)
# NTRK2 (human) = NTRK2 (human) (UniProt Q16620)
# STK32B (human) = STK32B (human) (UniProt Q9NY57)
# PAK4 (human) = PAK4 (human) (UniProt O96013)
# MAP2K6 (human) = MAP2K6 (human) (UniProt P52564)
# EPHA1 (human) = EPHA1 (human) (UniProt P21709)
# STK32C (human) = STK32C (human) (UniProt Q86UX6)
# [2] = test system: FLT3 (human), P36888 [D835H]
# BTK (human) = BTK (human) (UniProt Q06187)
# EPHA8 (human) = EPHA8 (human) (UniProt P29322)
# AAK1 (human) = AAK1 (human) (UniProt Q2M2I8)
# MAP3K4 (human) = MAP3K4 (human) (UniProt Q9Y6R4)
# FLT4 (human) = FLT4 (human) (UniProt P35916)
# PIP5K1C (human) = PIP5K1C (human) (UniProt O60331)
# CPK1 (P.falciparum) = test system: CPK1 (P.falciparum)
# ULK2 (human) = ULK2 (human) (UniProt Q8IYT8)
# ERBB2 (human) = ERBB2 (human) (UniProt P04626)
# IKBKB (human) = IKBKB (human) (UniProt O14920)
# GRK7 (human) = GRK7 (human) (UniProt Q8WTQ7)
# Chain of FLT4 (human) (P35916 whole entry, looked up): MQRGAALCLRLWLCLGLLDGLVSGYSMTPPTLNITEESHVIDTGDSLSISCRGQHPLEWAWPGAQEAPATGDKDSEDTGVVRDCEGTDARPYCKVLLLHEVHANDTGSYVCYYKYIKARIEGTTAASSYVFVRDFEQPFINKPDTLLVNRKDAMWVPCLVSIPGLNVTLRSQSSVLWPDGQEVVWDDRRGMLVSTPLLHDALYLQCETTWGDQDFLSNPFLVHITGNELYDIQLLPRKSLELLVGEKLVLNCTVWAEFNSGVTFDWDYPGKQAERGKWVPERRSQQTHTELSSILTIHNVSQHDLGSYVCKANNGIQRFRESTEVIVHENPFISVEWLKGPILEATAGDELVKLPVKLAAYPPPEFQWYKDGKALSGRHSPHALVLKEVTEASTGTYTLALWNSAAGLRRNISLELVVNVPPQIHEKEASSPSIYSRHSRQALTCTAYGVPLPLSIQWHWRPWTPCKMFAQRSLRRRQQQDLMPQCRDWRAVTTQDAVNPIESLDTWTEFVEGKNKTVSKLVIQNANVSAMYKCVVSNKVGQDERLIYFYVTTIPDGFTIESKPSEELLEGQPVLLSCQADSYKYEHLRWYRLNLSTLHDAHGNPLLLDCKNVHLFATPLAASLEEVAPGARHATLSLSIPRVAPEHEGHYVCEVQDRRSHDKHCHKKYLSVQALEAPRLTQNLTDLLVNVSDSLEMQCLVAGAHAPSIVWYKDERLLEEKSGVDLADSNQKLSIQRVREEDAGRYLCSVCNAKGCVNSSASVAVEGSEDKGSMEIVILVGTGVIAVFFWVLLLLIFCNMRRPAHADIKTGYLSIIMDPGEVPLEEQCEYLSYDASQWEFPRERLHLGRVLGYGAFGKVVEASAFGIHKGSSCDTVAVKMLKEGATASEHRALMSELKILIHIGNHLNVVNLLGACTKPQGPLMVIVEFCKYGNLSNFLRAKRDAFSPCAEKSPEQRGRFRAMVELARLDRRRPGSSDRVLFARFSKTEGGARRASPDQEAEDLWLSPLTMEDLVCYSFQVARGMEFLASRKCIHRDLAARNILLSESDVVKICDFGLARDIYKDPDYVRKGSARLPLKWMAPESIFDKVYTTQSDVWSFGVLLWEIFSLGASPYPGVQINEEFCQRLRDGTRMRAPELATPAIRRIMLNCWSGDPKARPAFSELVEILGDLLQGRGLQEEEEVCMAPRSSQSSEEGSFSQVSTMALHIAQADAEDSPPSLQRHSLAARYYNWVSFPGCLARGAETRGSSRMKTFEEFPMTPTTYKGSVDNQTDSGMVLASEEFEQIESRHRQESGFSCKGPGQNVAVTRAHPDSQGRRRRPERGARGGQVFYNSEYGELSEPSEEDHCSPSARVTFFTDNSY
# Chain of IKBKB (human) (O14920 whole entry, looked up): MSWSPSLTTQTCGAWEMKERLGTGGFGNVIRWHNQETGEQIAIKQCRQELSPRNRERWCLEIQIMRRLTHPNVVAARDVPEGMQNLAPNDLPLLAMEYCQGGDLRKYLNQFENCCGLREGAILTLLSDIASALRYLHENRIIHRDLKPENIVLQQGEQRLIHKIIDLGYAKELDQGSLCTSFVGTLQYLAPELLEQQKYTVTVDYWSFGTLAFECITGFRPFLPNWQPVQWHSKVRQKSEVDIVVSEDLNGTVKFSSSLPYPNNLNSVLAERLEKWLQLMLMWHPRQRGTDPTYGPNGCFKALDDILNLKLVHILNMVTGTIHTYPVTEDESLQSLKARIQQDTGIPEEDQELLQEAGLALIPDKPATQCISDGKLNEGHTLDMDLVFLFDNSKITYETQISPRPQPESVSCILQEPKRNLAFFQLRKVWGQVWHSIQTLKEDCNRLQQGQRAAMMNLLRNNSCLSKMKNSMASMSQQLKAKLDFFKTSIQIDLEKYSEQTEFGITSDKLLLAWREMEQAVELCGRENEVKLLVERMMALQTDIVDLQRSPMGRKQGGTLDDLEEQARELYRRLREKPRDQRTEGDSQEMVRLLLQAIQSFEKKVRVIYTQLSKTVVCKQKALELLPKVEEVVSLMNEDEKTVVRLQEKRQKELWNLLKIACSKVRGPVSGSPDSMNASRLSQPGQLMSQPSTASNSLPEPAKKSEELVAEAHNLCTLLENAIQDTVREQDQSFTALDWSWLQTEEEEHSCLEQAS
# Chain of BTK (human) (Q06187 whole entry, looked up): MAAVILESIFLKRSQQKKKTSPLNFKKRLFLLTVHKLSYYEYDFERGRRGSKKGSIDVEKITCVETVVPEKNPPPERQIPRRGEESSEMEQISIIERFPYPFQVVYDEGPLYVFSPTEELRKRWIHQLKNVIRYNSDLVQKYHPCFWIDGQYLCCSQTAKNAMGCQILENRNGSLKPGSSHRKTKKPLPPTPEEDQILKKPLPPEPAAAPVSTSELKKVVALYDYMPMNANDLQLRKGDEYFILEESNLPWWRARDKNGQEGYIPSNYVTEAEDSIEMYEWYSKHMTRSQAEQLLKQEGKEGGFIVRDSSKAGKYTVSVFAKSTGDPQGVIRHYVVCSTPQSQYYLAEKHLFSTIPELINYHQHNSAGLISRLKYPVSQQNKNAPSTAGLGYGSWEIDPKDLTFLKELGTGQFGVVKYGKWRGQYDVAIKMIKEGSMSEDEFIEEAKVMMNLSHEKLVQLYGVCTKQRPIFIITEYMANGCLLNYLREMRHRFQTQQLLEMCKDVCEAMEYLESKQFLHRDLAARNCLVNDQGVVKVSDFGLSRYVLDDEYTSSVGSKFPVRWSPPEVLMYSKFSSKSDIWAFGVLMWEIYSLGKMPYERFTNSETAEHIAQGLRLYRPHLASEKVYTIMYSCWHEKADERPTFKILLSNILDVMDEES
# Chain of YES1 (human) (P07947 whole entry, looked up): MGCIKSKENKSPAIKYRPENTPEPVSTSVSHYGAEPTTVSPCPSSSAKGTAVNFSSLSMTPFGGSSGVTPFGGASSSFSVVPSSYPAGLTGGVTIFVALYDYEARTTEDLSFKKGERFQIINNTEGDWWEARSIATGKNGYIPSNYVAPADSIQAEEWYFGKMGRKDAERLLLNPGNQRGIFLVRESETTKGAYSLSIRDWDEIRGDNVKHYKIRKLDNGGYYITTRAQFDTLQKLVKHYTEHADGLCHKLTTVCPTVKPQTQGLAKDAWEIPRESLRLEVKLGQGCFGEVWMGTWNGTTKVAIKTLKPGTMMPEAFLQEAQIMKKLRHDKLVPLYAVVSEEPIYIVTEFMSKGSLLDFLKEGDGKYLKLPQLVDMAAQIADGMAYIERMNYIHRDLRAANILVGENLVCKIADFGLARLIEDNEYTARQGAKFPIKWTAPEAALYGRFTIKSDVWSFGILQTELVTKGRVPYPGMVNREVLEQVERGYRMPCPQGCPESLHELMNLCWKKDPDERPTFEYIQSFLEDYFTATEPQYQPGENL
# Chain of CHEK1 (human) (O14757 whole entry, looked up): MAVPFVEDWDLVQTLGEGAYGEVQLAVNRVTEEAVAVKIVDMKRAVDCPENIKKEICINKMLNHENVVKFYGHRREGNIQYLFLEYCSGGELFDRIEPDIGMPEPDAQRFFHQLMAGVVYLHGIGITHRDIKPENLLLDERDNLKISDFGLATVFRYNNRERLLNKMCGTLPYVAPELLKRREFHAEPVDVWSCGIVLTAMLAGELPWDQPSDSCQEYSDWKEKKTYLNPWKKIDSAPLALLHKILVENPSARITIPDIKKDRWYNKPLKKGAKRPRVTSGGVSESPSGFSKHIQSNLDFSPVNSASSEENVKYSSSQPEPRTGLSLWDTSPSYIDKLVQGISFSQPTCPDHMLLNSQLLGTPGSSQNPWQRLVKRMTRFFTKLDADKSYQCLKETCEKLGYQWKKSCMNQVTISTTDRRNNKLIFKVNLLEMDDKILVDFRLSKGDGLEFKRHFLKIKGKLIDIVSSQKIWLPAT
# Chain of EPHB6 (human) (O15197 whole entry, looked up): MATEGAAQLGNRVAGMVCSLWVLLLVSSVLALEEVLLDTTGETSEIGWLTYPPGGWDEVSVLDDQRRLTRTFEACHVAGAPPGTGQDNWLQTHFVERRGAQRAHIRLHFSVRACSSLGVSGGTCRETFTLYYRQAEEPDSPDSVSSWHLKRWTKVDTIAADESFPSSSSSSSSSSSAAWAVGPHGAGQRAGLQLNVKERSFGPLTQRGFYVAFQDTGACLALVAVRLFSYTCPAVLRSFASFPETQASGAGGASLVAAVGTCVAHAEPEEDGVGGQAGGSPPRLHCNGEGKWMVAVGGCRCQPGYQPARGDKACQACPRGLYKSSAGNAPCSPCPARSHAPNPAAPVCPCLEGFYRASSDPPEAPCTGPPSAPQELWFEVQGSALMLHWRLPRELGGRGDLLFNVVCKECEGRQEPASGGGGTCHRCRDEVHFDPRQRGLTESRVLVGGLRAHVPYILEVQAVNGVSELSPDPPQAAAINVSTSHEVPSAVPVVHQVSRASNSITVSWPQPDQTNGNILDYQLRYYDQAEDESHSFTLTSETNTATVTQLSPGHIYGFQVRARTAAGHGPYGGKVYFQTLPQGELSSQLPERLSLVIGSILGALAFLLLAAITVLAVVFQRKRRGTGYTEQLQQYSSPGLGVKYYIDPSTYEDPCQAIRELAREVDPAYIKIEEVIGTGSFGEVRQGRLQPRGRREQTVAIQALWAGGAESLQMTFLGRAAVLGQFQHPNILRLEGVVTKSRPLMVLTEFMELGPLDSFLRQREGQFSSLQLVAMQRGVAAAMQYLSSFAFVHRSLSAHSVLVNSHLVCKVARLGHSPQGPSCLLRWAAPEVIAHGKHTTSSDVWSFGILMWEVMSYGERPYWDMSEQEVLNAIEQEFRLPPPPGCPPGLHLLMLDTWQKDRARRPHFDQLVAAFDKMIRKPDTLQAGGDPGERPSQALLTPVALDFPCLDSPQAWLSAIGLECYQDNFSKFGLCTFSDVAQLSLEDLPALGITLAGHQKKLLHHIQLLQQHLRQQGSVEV
compound,measurement,setting,value
Cn1c2ccccc2c2c3c(c4c5ccccc5n(CCC#N)c4c21)CNC3=O,"kinase still bound, per cent of control",AKT2 (human),95%
same,"kinase still bound, per cent of control",[1],0%
same,"kinase still bound, per cent of control",FLT3 (human),1.4%
same,"kinase still bound, per cent of control",MAPK7 (human),0.1%
same,"kinase still bound, per cent of control",CHEK1 (human),0.2%
same,"kinase still bound, per cent of control",PKN3 (M.tuberculosis),100%
same,"kinase still bound, per cent of control",ERBB4 (human),82%
same,"kinase still bound, per cent of control",YES1 (human),96%
same,"kinase still bound, per cent of control",PLK1 (human),100%
same,"kinase still bound, per cent of control",CSNK1G1 (human),100%
same,"kinase still bound, per cent of control",MAP2K3 (human),5%
same,"kinase still bound, per cent of control",EPHB6 (human),50%
same,"kinase still bound, per cent of control",MYO3A (human),35%
same,"kinase still bound, per cent of control",FYN (human),92%
same,"kinase still bound, per cent of control",HIPK2 (human),15%
same,"kinase still bound, per cent of control",EIF2AK1 (human),100%
same,"kinase still bound, per cent of control",CDC42BPB (human),100%
same,"kinase still bound, per cent of control",CASK (human),72%
same,"kinase still bound, per cent of control",STK24 (human),92%
same,"kinase still bound, per cent of control",WEE2 (human),100%
same,"kinase still bound, per cent of control",LIMK1 (human),96%
same,"kinase still bound, per cent of control",PRKAA1 (human),59%
same,"kinase still bound, per cent of control",EPHA6 (human),86%
same,"kinase still bound, per cent of control",PRKCI (human),86%
same,"kinase still bound, per cent of control",NTRK2 (human),1.2%
same,"kinase still bound, per cent of control",STK32B (human),100%
same,"kinase still bound, per cent of control",PAK4 (human),4%
same,"kinase still bound, per cent of control",MAP2K6 (human),15%
same,"kinase still bound, per cent of control",EPHA1 (human),97%
same,"kinase still bound, per cent of control",STK32C (human),100%
same,"kinase still bound, per cent of control",[2],2.6%
same,"kinase still bound, per cent of control",BTK (human),83%
same,"kinase still bound, per cent of control",EPHA8 (human),90%
same,"kinase still bound, per cent of control",AAK1 (human),0.55%
same,"kinase still bound, per cent of control",MAP3K4 (human),99%
same,"kinase still bound, per cent of control",FLT4 (human),62%
same,"kinase still bound, per cent of control",PIP5K1C (human),100%
same,"kinase still bound, per cent of control",CPK1 (P.falciparum),35%
same,"kinase still bound, per cent of control",ULK2 (human),86%
same,"kinase still bound, per cent of control",ERBB2 (human),87%
same,"kinase still bound, per cent of control",IKBKB (human),50%
same,"kinase still bound, per cent of control",GRK7 (human),10%

# Source: the kinase profiling compilation of Christmann-Franck et al. (2016)
